Results reported in US20230141034A1, “ADAMANTANE-1-CARBONYL THIOUREA, AS P2X RECEPTOR ANTAGONIST” (COMSATS UNIVERSITY ISLAMABAD, priority 2021, published 2023).

Key:
h-P2X7 [1] = target: T1, h-P2X7 (Homo sapiens, UniProt Q99572); experiment: Mode of receptor inhibition, BzATP dose-response curve at h-P2X7R; assay type: cell-based; set-up: expressed in transfected cells; host or cells: human 1321N1 astrocytoma cells
T1 sequence (Q99572 1-595): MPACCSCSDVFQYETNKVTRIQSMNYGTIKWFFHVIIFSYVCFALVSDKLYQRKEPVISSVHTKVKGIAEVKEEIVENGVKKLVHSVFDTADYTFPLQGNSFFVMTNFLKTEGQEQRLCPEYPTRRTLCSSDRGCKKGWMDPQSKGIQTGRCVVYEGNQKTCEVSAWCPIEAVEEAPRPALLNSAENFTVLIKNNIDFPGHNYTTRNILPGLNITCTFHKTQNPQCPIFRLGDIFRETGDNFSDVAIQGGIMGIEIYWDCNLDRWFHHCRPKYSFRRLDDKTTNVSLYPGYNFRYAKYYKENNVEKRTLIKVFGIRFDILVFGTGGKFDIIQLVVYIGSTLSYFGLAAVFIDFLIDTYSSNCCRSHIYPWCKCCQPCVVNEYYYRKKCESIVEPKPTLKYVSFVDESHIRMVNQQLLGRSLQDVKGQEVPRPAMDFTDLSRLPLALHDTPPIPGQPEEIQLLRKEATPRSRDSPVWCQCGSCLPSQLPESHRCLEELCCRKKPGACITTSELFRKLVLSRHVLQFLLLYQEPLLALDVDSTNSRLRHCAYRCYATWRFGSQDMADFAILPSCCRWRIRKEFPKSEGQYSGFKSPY
Experimental: (§1) Different dilutions of compounds were administered to receptors expressed cell line.

[2] = MTT cytotoxicity assay, human 1321N1 astrocytoma cell line; assay type: cell-based; conditions: human, 1321N1 astrocytoma cells, final concentration of 50 μM
Experimental: (§2) Cellular safety profiling of adamantane thioureas were done through MTT assay. All compounds were analyzed for toxicity at final concentration of 50 μM. […] Toxicity was determined against two cancer cell lines including human 1321N1 Astrocytoma cell line, HeLa cell line and a normal HEK-293 cell line.
(§3) c. Cell Viability Assay (MTT Assay)
(§4) After 24 h of incubation at 37° C. in CO2 incubator, culture media will be replaced with serum-free media along with test compounds and re-incubate. After 24 h, media will be removed and add 100 μL of MTT reagent (0.5-5 mg/mL) and will be incubated for a further 4 h, at 37° C. Absorbance will be measured at 570 and 630 nm to calculate cell viability.

h-P2X4 [3] = target: T2, h-P2X4 (Homo sapiens, UniProt Q99571); experiment: Ca2+ flux assay h-P2X4; conditions: for IC50: read-out: h-P2X4 IC50 ± SEM, Ca2+ flux, n = 3
T2 sequence (Q99571 1-388): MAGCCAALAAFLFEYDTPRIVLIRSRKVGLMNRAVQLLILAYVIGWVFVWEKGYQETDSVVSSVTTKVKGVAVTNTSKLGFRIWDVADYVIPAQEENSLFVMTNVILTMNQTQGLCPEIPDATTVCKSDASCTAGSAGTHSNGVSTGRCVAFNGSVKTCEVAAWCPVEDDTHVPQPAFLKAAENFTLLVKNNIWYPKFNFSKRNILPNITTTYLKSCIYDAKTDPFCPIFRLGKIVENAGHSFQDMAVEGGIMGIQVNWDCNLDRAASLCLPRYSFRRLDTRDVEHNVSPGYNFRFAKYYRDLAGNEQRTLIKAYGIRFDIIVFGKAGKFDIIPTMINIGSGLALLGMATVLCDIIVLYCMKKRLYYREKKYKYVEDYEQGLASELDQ
Experimental: (§5) Compounds were initially analyzed at a final concentration of about 50 μM and percentage of inhibition was calculated.
(§6) Calcium Mobilization Assay to Measure P2X Receptors Response Cell Culture: P2X receptors functions can be analyzed from ATP-induced increase in cytosolic Ca^2+ concentration. Two Ca^2+ chelating dyes, Fura-2 AM and Fluo-4 AM can be used to determine the intracellular Ca^2+ concentration through a fluorescent imaging micro-titer plate reader (BMG Labtech: FLUOstar Galaxy®). Non-transfected human 1321N1 astrocytoma cells, as well as P2X receptors transfected human 1321N1 astrocytoma cells will be cultured in T-75 cm^2 cell culture flask having appropriate cell culture growth media; Dulbecco's Modified Eagle's medium (DMEM) supplemented with 10% fetal bovine serum (FBS), 75 μg/mL of Hygromycin B or human P2X receptors transfected cell lines and 1% pen-strep (antibiotics). Cells will be incubated at 37° C. in 5% CO2 incubator until 80 to 90% cell confluency will be achieved. Cells will be maintained in an exponential growth phase throughout the experiment and closely monitored for contamination.
Measurement of Ca^2+ Flux
(§7) When 1321N1 cells will reach 80 to 90% of confluency, cells will be harvested from T-75 cm^2 flask by trypsinization. After washing the cells with phosphate buffer saline (PBS), cells will be seeded at a density of 20,000 cells/well in black, clear bottom, poly-D-lysine coated 96 well plate. After 16 to 24 h, cell culture media will be removed and add Hank's balanced salt solution (HBSS) containing 3 μM Ca^2+ chelating dyes Fura-2 AM or Fluo-4 AM. After 1 h of incubation at 23° C., the loading dye solution will be removed, and added seven to eight dilutions of test compounds in triplicate format. ATP (at a concentration value of EC80) or buffer will be added and measured the excitation and emission at 340/520 nm and 380/520 nm through FLUOStar Galaxy®. Assay volume for the experiment will be 200 μL. IC50 and EC50 values will be calculated by PRISM 5.0 (GrapgPad, San Diego, Calif., USA) through non-linear regression analysis.

h-P2X7 [4] = target: T1, h-P2X7; experiment: BzATP induced Ethidium Bromide dye-uptake assay (pore formation); assay type: cell-based; set-up: expressed in transfected cells; host or cells: human 1321N1 astrocytoma cells; conditions: for Emax at 20 µM: read-out: Emax % (at 20 μM inhibitor concentration), BzATP induced Ethidium Bromide dye uptake, 20 μM inhibitor concentration, BzATP without inhibitor = 100; for IC50: serial dilution curves, read-out: IC50 ± SEM, BzATP induced Ethidium Bromide dye uptake
From the text: This is a specific assay to access the activities of P2X7R. Prolong exposure of P2X7R leads to pore formation that results intake of large molecular weight dye through this pore. An inhibitor of P2X7R inhibits this pore formation that confirms the inhibitory potential of compounds.
e. Ethidium Bromide Dye-Uptake Assay for P2X7 Receptors: (Pore Formation)
Human astrocytoma 1321N1 cells stably expressing P2X7 receptors will be seeded in the black wall, clear bottom and poly-D-lysine coated 96 wells plate at a cell density of 20,000 cells/well. After 24 h of incubation, culture medium will be removed, and wash the cells with dye uptake buffer. Cells will be treated with ethidium bromide with the subsequent addition of different concentrations of Bz-ATP to 96 wells plate in triplicate format. […] For screening of P2X7 receptor antagonists, cells will be treated with different concentrations of test compounds for 15 min at 37° C. before the addition of Bz-ATP.

[5] = MTT cytotoxicity assay, HeLa cell line; assay type: cell-based; conditions: human, HeLa cells, final concentration of 50 μM
Experimental: as §2, §3, §4

h-P2X2 = target: T3, h-P2X2 (Homo sapiens, UniProt Q9UBL9); experiment: Ca2+ flux assay h-P2X2; conditions: for inhibition at 50 µM: read-out: h-P2X2 % Inhibition
T3 sequence (Q9UBL9 1-471): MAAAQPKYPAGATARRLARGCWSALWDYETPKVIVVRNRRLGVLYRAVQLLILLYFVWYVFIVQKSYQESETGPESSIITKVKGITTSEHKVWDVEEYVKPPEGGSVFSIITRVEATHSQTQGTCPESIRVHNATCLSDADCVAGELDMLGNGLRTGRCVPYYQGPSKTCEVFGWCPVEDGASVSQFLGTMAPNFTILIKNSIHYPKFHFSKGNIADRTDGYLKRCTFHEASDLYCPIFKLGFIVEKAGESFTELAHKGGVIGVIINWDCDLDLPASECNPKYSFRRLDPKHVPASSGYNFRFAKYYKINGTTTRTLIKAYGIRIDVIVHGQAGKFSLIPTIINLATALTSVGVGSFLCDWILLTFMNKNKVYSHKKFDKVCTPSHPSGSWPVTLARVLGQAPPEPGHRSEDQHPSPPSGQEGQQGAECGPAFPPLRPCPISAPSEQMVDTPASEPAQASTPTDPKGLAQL
Experimental: as §5, §6
Measurement of Ca^2+ Flux
as §7

h-P2X7 [6] = target: T1, h-P2X7; experiment: Ca2+ flux assay h-P2X7; conditions: for IC50: read-out: h-P2X7 IC50 ± SEM, Ca2+ flux, n = 3
Experimental: as §5, §6
Measurement of Ca^2+ Flux
as §7

[7] = MTT cytotoxicity assay, HEK-293 cell line; assay type: cell-based; conditions: human, HEK-293 cells, final concentration of 50 μM
Experimental: as §2, §3, §4

h-P2X5 = h-P2X5 (Homo sapiens, UniProt Q93086); experiment: Ca2+ flux assay h-P2X5; conditions: read-out: h-P2X5 % Inhibition
Sequence of h-P2X5 (Q93086 whole entry): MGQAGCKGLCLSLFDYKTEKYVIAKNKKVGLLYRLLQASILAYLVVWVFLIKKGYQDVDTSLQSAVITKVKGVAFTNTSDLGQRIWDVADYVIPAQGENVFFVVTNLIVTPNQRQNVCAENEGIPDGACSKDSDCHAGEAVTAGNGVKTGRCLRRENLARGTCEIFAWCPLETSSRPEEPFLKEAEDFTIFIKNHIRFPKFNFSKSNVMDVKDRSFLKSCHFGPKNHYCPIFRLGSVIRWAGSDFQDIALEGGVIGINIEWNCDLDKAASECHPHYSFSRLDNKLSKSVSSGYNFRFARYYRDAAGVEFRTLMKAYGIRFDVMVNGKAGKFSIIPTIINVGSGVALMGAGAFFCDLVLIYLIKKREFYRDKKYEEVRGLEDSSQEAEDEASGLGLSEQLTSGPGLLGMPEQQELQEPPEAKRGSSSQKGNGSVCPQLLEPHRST
Experimental: as §5, §6
Measurement of Ca^2+ Flux
as §7

h-P2X4 [8] = target: T2, h-P2X4; experiment: Mode of receptor inhibition, ATP dose-response curve at h-P2X4R; assay type: cell-based; set-up: expressed in transfected cells; host or cells: human 1321N1 astrocytoma cells
Experimental: as §1

[9] = tested on: human 1321N1 Astrocytoma cell line; experiment: MTT cytotoxicity assay, human 1321N1 astrocytoma cell line; assay type: cell-based; conditions: final concentration of 50 μM
Experimental: as §2, §3, §4

HeLa cell line = experiment: MTT cytotoxicity assay, HeLa cell line; assay type: cell-based; conditions: final concentration of 50 μM
Experimental: as §2, §3, §4

HEK-293 cell line = experiment: MTT cytotoxicity assay, HEK-293 cell line; assay type: cell-based; conditions: final concentration of 50 μM
Experimental: as §2, §3, §4

Compound | cytotoxicity at 24 h, 50 µM [2] [%] | cytotoxicity at 24 h, 50 µM [5] [%] | inhibition at 50 µM (h-P2X2) [%] | IC50 (h-P2X7 [6]) [nM] | cytotoxicity at 24 h, 50 µM [7] [%] | inhibition at 50 µM (h-P2X5) [%] | Human 1321N1 Astrocytoma Cell Line (% cytotoxicity) [9] [%] | HeLa Cell Line (% cytotoxicity) (HeLa cell line) [%] | HEK-293 Cell Line (% cytotoxicity) (HEK-293 cell line) [%] | also measured
Nc1ncnc2c1ncn2[C@@H]1O[C@H](COP(=O)(O)OP(=O)(O)OP(=O)(O)O)[C@@H](OC(=O)c2ccc(C(=O)c3ccccc3)cc2)[C@H]1O [BzATP, reference compound] |  |  |  |  |  |  |  |  |  | EC50 (h-P2X7 [1]; BzATP without inhibitor, read-out: EC50 of BzATP induced response): 7090 nM
O=C(NC(=S)Nc1cccnc1Cl)C12CC3CC(CC(C3)C1)C2 [If, N-((2-chloropyridin-3-yl)carbamothioyl)adamantane-1-carboxamide] | 11.4 | 5.21 | 13.2 | 99 ± 70 | 4.95 | 25.5 |  |  |  | IC50 (h-P2X4 [3]): 1270 ± 110 nM; Emax at 20 µM (h-P2X7 [4]): 47%; IC50 (h-P2X7 [4]): 310 ± 70 nM
Nc1ncnc2c1ncn2[C@@H]1O[C@H](COP(=O)(O)OP(=O)(O)OP(=O)(O)O)[C@@H](O)[C@H]1O [ATP, reference compound] |  |  |  |  |  |  |  |  |  | EC50 (h-P2X4 [8]; ATP without inhibitor, read-out: EC50 of ATP induced response): 5450 nM
O=C(NC(=S)Nc1cccc2cccnc12)C12CC3CC(CC(C3)C1)C2 [Io, N-(quinolin-8-ylcarbamothioyl)adamantane-1-carboxamide] | 9.12 | 6.22 | 15.3 | 73 ± 40 | 17.6 | 31.5 |  |  |  | inhibition at 50 µM (h-P2X4 [3]; read-out: h-P2X4 % Inhibition): 25.1%; Emax at 20 µM (h-P2X7 [4]): 70%; IC50 (h-P2X7 [4]): 136 ± 20 nM; mechanism of receptor inhibition (h-P2X7 [1]; h-P2X7R expressed cell line, different dilutions of compound): negative allosteric modulators
CC(C)c1cc(Br)c(NC(=O)Nc2cccnc2)c(Br)c1 [BX-430, reference compound] |  |  |  |  |  |  | 20.21 | 9.12 | 2.85 | 
CC(C)c1ccc(NC(=S)NC(=O)C23CC4CC(CC(C4)C2)C3)c(Br)c1 [Ip, N-((2-bromo-4-isopropylphenyl)carbamothioyl)adamantane-1-carboxamide] | 19.7 | 23.5 | 30.2 |  | 20.6 | 12.4 |  |  |  | IC50 (h-P2X4 [3]): 40 ± 10 nM; mechanism of receptor inhibition (h-P2X4 [8]; h-P2X4R expressed cell line, different dilutions of compound): negative allosteric modulators; inhibition at 50 µM (h-P2X7 [6]; read-out: h-P2X7 % Inhibition): 42.5%
Cc1nc(N=Nc2ccc(S(=O)(=O)O)cc2S(=O)(=O)O)c(COP(=O)(O)O)c(C=O)c1O [PPADS, reference compound] |  |  |  |  |  |  | 19.02 | 17.92 | 42.58 | 
Nc1c(S(=O)(=O)O)cc(Nc2ccc(Nc3nc(Cl)nc(Nc4cccc(S(=O)(=O)O)c4)n3)c(S(=O)(=O)O)c2)c2c1C(=O)c1ccccc1C2=O [Reactive Blue 2, reference compound] |  |  |  | 2790 ± 220 |  |  | 20.82 | 14.47 | 39.89 | IC50 (h-P2X2; read-out: h-P2X2 IC50 ± SEM, Ca2+ flux, n = 3): 890 ± 410 nM
